Assays:
[1] = molecular target: T1, Amine oxidase [copper-containing] 3 (Bos taurus, UniProt Q9TTK6); experiment: Stability of compound assessed as bovine plasma VAP-1 mediated drug degradation by measuring formation of aldehyde metabolite at 1 to 10 uM incubated for 60 to 120 mins by HPLC-MS analysis; type: ADME, cell-free; details: cattle, dose lower 1 µM, time lower 60 min, dose upper 10 µM, time upper 120 min
T1 sequence (Q9TTK6 whole entry): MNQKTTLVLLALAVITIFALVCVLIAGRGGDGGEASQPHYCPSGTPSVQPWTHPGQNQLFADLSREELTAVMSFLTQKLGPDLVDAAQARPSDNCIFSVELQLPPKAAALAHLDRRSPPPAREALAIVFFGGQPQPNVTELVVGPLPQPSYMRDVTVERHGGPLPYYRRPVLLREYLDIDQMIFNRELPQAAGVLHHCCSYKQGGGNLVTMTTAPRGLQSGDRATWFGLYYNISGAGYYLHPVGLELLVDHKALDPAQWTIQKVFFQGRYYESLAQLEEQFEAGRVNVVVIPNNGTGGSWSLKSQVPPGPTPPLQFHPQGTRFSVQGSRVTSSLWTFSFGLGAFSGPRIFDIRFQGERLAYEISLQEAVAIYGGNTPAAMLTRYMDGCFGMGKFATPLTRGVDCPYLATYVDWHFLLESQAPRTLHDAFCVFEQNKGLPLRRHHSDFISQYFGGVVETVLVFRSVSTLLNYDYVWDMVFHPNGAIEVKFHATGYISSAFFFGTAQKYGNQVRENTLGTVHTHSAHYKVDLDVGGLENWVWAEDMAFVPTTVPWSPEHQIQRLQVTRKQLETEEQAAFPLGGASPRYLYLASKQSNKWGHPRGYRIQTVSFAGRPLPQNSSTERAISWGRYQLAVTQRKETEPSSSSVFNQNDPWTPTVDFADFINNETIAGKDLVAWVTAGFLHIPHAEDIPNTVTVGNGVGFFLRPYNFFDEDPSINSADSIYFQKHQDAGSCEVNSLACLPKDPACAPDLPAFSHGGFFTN

[2] = molecular target: T2, VAP-1 (amine oxidase [copper-containing] 3) (Bos taurus, UniProt Q9TTK6); experiment: Stability of compound assessed as bovine plasma VAP-1 mediated drug degradation by measuring parent compound remaining at 10 uM incubated for 15 mins by HPLC-MS analysis; type: ADME, cell-free; details: cattle, bovine plasma VAP-1 (amine oxidase [copper-containing] 3), read-out: Stability
T2 sequence (Q9TTK6 whole entry): T1 sequence (Q9TTK6 whole entry)

[3] = molecular target: T3, Amine oxidase [copper-containing] 3 (Homo sapiens) (UniProt Q16853); experiment: Inhibition of human plasma VAP-1 using 6-(5-Pheny1-2H-tetrazol-2-yl)hexan-1-amine as substrate at 100 uM preincubated with enzyme for 15 mins followed by substrate addition measured after 120 mins by UV-HPLC analysis relative to control; type: cell-free; details: time 135.0 min
T3 sequence (whole entry): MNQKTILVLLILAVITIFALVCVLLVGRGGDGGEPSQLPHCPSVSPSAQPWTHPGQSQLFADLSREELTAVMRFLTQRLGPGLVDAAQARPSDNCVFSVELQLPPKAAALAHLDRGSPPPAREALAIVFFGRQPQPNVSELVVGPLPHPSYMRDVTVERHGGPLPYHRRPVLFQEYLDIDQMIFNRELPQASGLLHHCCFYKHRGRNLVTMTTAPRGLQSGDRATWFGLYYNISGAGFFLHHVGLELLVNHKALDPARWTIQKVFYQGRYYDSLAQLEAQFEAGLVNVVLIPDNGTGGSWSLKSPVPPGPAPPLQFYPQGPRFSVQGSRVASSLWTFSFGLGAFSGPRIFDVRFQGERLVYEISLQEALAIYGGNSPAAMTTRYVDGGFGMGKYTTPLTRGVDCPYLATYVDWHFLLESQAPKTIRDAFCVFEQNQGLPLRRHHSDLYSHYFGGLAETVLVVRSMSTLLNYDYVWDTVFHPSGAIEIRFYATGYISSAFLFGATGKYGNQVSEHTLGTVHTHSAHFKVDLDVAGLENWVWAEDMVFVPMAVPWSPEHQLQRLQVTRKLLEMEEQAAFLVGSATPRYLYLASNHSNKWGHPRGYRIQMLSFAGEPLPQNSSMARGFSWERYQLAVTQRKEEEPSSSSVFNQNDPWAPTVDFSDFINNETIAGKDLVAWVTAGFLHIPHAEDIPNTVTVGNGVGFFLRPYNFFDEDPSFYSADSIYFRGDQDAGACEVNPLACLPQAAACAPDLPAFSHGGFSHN

[4] = molecular target: T2, VAP-1 (amine oxidase [copper-containing] 3); experiment: Stability of compound assessed as bovine plasma VAP-1 mediated drug degradation by measuring parent compound remaining at 10 uM incubated for 120 mins by HPLC-MS analysis; type: ADME, cell-free; details: cattle, bovine plasma VAP-1 (amine oxidase [copper-containing] 3), read-out: Stability
[5] = molecular target: T2, VAP-1 (amine oxidase [copper-containing] 3); experiment: Stability of compound assessed as bovine plasma VAP-1 mediated drug degradation by measuring parent compound remaining at 10 uM incubated for 30 mins by HPLC-MS analysis; type: ADME, cell-free; details: cattle, bovine plasma VAP-1 (amine oxidase [copper-containing] 3), read-out: Stability
[6] = molecular target: T4, Amine oxidase [copper-containing] 3 (Homo sapiens, UniProt Q16853); experiment: Inhibition of human plasma VAP-1 using 6-(5-Pheny1-2H-tetrazol-2-yl)hexan-1-amine as substrate preincubated with enzyme for 15 mins followed by substrate addition measured after 120 mins by UV-HPLC analysis; type: cell-free
T4 sequence (Q16853 whole entry): T3 sequence (whole entry)

[7] = Selectivity index, ratio of IC50 for human plasma VAP-1 to IC50 for bovine plasma VAP-1
[8] = molecular target: T3, Amine oxidase [copper-containing] 3 (Homo sapiens); experiment: Inhibition of human plasma VAP-1 using 6-(5-Pheny1-2H-tetrazol-2-yl)hexan-1-amine as substrate at 10 uM preincubated with enzyme for 15 mins followed by substrate addition measured after 120 mins by UV-HPLC analysis relative to control; type: cell-free; details: time 135.0 min
[9] = molecular target: Amine oxidase [copper-containing] 1 (diamine oxidase, Sus scrofa) (UniProt Q9TRC7); experiment: Inhibition of porcine kidney DAO using 6-(5-phenyltetrazol-2-yl)hexan-1-amine as substrate at 10 uM preincubated with enzyme for 15 mins followed by substrate addition measured after 30 mins by UV-HPLC analysis relative to control; details: time 45.0 min
Amine oxidase [copper-containing] 1 (diamine oxidase, Sus scrofa), sequence (Q9TRC7 whole entry, looked up): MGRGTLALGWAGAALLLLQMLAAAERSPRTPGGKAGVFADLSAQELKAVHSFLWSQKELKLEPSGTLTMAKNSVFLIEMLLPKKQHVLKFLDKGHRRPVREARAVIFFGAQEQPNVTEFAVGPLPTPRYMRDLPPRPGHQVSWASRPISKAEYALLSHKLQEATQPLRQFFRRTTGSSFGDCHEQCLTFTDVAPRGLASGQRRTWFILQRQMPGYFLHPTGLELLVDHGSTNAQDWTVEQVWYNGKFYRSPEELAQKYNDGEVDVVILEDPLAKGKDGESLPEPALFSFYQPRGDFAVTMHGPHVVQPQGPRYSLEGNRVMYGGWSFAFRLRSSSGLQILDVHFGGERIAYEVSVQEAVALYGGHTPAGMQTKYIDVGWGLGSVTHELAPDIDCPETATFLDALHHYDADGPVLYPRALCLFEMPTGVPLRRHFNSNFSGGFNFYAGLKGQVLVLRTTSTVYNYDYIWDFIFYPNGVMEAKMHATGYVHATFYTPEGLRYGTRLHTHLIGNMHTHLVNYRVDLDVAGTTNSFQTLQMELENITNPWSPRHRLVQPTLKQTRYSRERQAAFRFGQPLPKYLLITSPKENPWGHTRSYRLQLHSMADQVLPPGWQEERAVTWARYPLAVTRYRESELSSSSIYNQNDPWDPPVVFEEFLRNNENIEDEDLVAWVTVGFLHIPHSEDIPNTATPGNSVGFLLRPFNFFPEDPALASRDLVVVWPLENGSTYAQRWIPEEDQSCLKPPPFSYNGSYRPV

[10] = molecular target: T2, VAP-1 (amine oxidase [copper-containing] 3); experiment: Stability of compound assessed as bovine plasma VAP-1 mediated drug degradation by measuring parent compound remaining at 10 uM incubated for 60 mins by HPLC-MS analysis; type: ADME, cell-free; details: cattle, bovine plasma VAP-1 (amine oxidase [copper-containing] 3), read-out: Stability

Structure (SMILES): NCC(=O)NCCCCCCn1nnc(-c2ccccc2)n1
- Stability [1]: Unstable
- remaining at 0.25 h, 10 µM [2]: 80%
- inhibition [3]: 23%
- remaining at 2 h, 10 µM [4]: < 5%
- remaining at 0.5 h, 10 µM [5]: 58%
- IC50 [6]: > 100 µM

Structure (SMILES): N#Cc1ccc(-c2nnn(CCCCCCNC(=O)CN)n2)cc1
- Ratio IC50 [7]: 2
- Stability [1]: Unstable
- remaining at 0.25 h, 10 µM [2]: 85%
- remaining at 2 h, 10 µM [4]: 29%
- inhibition [8]: 17%
- remaining at 0.5 h, 10 µM [5]: 79%
- IC50 [6]: 32 µM

Structure (SMILES): NCC(=O)NCc1cccc(-c2ccccc2)c1
- Stability [1]: Unstable
- remaining at 0.25 h, 10 µM [2]: 92%
- remaining at 2 h, 10 µM [4]: 23%
- remaining at 0.5 h, 10 µM [5]: 85%
- inhibition [9]: 39%
- remaining at 1 h, 10 µM [10]: 66%

Reference: ChEMBL document CHEMBL5523671, “ω-(5-Phenyl-2H-tetrazol-2-yl)alkyl-substituted glycine amides and related compounds as inhibitors of the amine oxidase vascular adhesion protein-1 (VAP-1)” (Bioorg Med Chem, 2024)
